Measurements taken from paper PMC4785407, “Reduction Impairs the Antibacterial Activity but Benefits the LPS Neutralization Ability of Human Enteric Defensin 5” (Scientific Reports, 2016).
Ends that are not written are not given here.

Assays:
[1] = test system: interaction between LPS and LBP (mouse LBP); assay: LPS-binding protein (LBP) block assay; format: biochemical; settings: 200 ng/mL, positive control; mouse LBP 60 ng/mL, biotinylated LPS 50 ng/mL
Procedure: The effects of peptides on the interaction between LPS and low concentrations of LBP were determined as previously described. Briefly, the plates of a LBP ELISA kit (Boster EK1274) were blocked by the incubation of 1% BSA prepared in 10 mM sodium phosphate buffer (pH 7.4) at 37 °C for 1 h, which were subsequently washed with 0.1% Tween-20. Aliquots of 100 μL of mouse LBP (Sigma SRP6034, 60 ng/mL) were added and incubated at 37 °C for 1.5 h. Peptides were prepared in sterile water, with concentrations of 12.5, 25, and 50 μg/mL, respectively. Biotinylated LPS (50 ng/mL) was added in the absence or presence of peptides (pre-incubated at 37 °C for 30 min). Polymyxin B (200 ng/mL) was used as a positive control. The binding of LPS to LBP was determined using a chromogenic reaction between HRP-conjugated streptavidin (Boster BA1088) and TMB (Sigma 860336). Data were processed by subtracting the absorbance in the absence of LPS. Statistical significance was determined by the Student−Newman−Keuls multiple comparisons test.
Figure 5. The efficiencies of peptides in blocking the interaction between LPS and LBP. A LBP ELISA plate was blocked by 1% BSA and subsequently washed with 0.1% Tween-20. Aliquots of 100 μL of the mouse LBP (60 ng/mL) was added and incubated at 37°C for 1.5 h. Peptides were prepared in sterile water, with concentrations of 12.5, 25, and 50 μg/mL, respectively. Biotinylated LPS (50 ng/mL) was then added in the absence or presence of peptides (pre-incubated at 37°C for 30 min). Data were processed by subtracting the absorbance in the absence of biotinylated LPS. Statistical significance was determined by the Student−Newman−Keuls multiple comparisons test. n.s, not significant; **, p < 0.01, relative to the value of the group solely treated with LPS.

bacteria = settings: cited from earlier work
Description: Oxidized human defensin 5 (HD5OX), a 32-residue α defensin, is stored in the secretory granules of Paneth cells in the small intestine as a propeptide (E20-R94) and is processed by anionic and/or meso isoforms of trypsin during secretion or shortly thereafter at a cleavage site between R62 and A63[6]. […] We have previously prepared bioactive HD5OX using Pichia pastoris and design ... || HD5OX is an endogenous bactericidal agent.

[2] = flexible N-terminus; cited from earlier work
Description: Changes in function follow changes in structure.

[3] = test system: LPS-binding protein (LBP); LPS-stimulated macrophages; settings: cited from earlier work
Description: Human defensins are also noted for their immunoregulatory properties. […] Additionally, some defensins are able to suppress the pro-inflammatory effect of bacterial lipopolysaccharide (LPS). For example, H ...

## Polymyxin B [PB, reference compound]
[1]
  effect on the interaction between LPS and LBP: significantly inhibited the LPS-LBP interaction

## HBD3: human β defensin cited from the literature (GIINTLQKYYCRVRGGRCAVLSCLPKEEQIGKCSTRGRKCCRRKK; ends and bridges not checked; cysteine pairing not given here; UniProt P81534 23-67, looked up)
bacteria
  function without disulfide bonds: can function well without disulfide bonds
[2]
  conformation in SDS micelles: adopts a α-helical-containing structure

## human β defensin (HBD) 1 (DHYNCVSSGGQCLYSACPIFTKIQGTCYRGKAKCCK; ends and bridges not checked; cysteine pairing not given here; UniProt P60022 33-68, looked up) [HBD1, ubiquitously expressed peptide in human epithelia]
bacteria; disulfide reduction
  antibacterial activity upon reduction: enhanced upon reduction
[3]
  interaction between LPS and low concentrations of LBP; TNF-α production: can block the interaction between LPS and low concentrations of LPS-binding protein

## HNP1: human neutrophil peptide cited from the literature
bacteria
  antibacterial property on loss of disulfide bonds: loss of disulfide bonds attenuates the antibacterial property
[3]
  interaction between LPS and low concentrations of LBP; TNF-α production: can block the interaction between LPS and low concentrations of LPS-binding protein
